US20260062422A1 (Halda Therapeutics OpCo, Inc., priority 2022, published 2026)

Tests used:
[1] = tested on: T-Rex 293 cell line SC cells lacking increased expression of progesterone receptor isoform B protein; test: Cellular growth inhibition, T-Rex 293 SC cells without doxycycline, Example 47; assay type: cell-based; details: T-Rex 293 SC cells not exposed to doxycycline, 72 hours, CellTiter-Glo 2.0; Table 15 (Example 47)
Protocol: The following types of cells were prepared for this experiment: (i) a T-Rex 293 cell line having increased expression of progesterone receptor isoform B protein due to exposure to doxycycline and (ii) a T-Rex 293 cell line lacking increased expression of progesterone receptor isoform B protein. Ability of the test compounds to inhibit proliferation of the foregoing cell types was evaluated according to the procedures set forth below.
The doxycycline-inducible progesterone receptor isoform B protein expressing cell line was established using the following protocol: T-Rex 293 cells were purchased from Invitrogen (Cat #R71007) and transfected using Lipofectamine 2000 with the wild-type progesterone receptor B protein sequence cloned into the pcDNA4/TO vector. Transfected cells were selected using 400 μg/mL Zeocin (Invitrogen Cat #R25001). Following selection, single clones were raised and maintained in Dulbecco's Modified Eagle Medium (DMEM) supplemented with 10% w/w Tetracycline-free fetal bovine serum (FBS) and 250 μg/mL Zeocin. Clones were analyzed for expression of progesterone receptor isoform B protein in the presence and absence of 10 ng/mL doxycycline (Sigma Cat #D9891), and a single doxycycline-inducible clone (hereinafter “SC”) was selected for use in downstream assays.
The SC cells were seeded on poly-D-lysine coated, black clear-bottom 384-well plates at 2500/well, in 25 μL Phenol Red Free Dulbecco's Modified Eagle Medium (DMEM) supplemented with 10% w/w charcoal-dextran treated fetal bovine serum (FBS) and 1% w/w pen-strep, with or without 10 ng/mL doxycycline. Pen-Strep is a commercially available mixture of penicillin G and streptomycin, which is used in mammalian cell culture media to prevent bacterial contamination. Phenol Red Free Dulbecco's Modified Eagle Medium (DMEM) supplemented with 10% w/w charcoal-dextran treated fetal bovine serum (FBS) and 1% w/w pen-strep, with or without 10 ng/mL doxycycline is herein referred to as Treatment Medium. Following seeding of cells in the plates, the plates were spun at 300×g for 30 seconds, then equilibrated to room temperature for 30 minutes, and then deposited in a humidified tissue culture incubator maintained at 37° C. with 5% CO2.
At 24 hours after seeding of the cells, dilutions of test compound were prepared in DMSO and dissolved in Treatment Medium, to achieve a final DMSO concentration of 0.5% w/w, thereby providing the Test Compound Solution. A 25 μL aliquot of the Test Compound Solution was added to cells in the well plates. An equal volume of a solution containing DMSO and Treatment Medium was used as a negative control. Following treatment of cells with Test Compound Solution or said equal volume of a solution containing DMSO and Treatment Medium, the plates were spun at 300×g for 30 seconds, and then left in an incubator for 72 hours.
At the end of the treatment duration, cell viability was quantified with CellTiter-Glo 2.0 reagent (Promega Cat #G9243). For this purpose, plates were equilibrated to room temperature for 30 minutes, and then 25 μL of CellTiter-Glo 2.0 reagent was added to cells in the plate wells. Plates were then agitated on a shaker for two minutes at 500 rpm and subsequently incubated at room temperature for 10 minutes. Following incubation, the plates were spun at 3000×g for 30 seconds, then sealed with an optical adhesive cover, and luminescence readings were measured with an EnVision Plate Reader (Perkin Elmer).
Data was normalized using zero luminescence for baseline. A four-parameter non-linear regression curve fit was applied to dose-response data in GraphPad Prism data analysis software to determine the half-maximal growth inhibitory concentration (GI50) for each test compound.

androgen receptor = target: T1, androgen receptor (Homo sapiens, UniProt P10275); test: Assay for binding affinity to androgen receptor ([3H]methyltrienolone radioligand, cell cytosol); details: 1 nM [3H]methyltrienolone, 24 hours at 4° C., Table 5
T1 sequence (P10275 1-920 T878A): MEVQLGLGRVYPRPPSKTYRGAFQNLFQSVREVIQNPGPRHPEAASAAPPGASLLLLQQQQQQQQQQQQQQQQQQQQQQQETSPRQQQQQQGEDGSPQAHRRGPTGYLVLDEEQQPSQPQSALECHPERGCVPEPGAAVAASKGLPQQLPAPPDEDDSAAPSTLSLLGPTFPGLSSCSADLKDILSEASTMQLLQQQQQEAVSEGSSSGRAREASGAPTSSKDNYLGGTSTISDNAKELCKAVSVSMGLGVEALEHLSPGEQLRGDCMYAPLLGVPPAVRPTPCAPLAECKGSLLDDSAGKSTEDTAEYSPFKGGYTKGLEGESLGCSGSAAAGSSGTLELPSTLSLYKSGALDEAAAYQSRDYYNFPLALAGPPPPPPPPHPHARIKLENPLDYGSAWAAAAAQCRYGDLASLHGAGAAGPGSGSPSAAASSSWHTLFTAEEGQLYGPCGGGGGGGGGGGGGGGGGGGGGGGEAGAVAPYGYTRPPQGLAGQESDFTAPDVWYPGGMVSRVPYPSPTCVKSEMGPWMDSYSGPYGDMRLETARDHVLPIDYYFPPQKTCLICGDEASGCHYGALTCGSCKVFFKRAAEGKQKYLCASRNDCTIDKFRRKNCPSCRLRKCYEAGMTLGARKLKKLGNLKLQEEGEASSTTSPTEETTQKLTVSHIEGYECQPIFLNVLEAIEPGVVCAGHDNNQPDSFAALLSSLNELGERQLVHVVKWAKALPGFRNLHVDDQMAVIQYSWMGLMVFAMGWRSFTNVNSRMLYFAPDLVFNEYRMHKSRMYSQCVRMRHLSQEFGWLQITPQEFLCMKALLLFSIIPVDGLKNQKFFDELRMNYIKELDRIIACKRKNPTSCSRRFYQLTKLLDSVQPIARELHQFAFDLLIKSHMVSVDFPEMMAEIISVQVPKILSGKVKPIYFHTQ
How it was run: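 Competition binding in cell cytosol ([…]) with 1 nM [3H]methyltrienolone, 24 hours at 4° C, in pH 7.4 Hepes-Tris buffer with 5 μM triamcinolone acetonide; nonspecific binding defined by 1 μM testosterone. Filtration and scintillation counting; values reported as % inhibition of specific binding.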

Structure (SMILES)	GI50 [1]	Kd (androgen receptor)
Cc1sc2c(c1C)C(c1ccc(Cl)cc1)=N[C@@H](CC(=O)NCCOC1CCN(c3ncc(C(=O)N[C@H]4C(C)(C)[C@H](Oc5ccc(C#N)c(Cl)c5)C4(C)C)cn3)CC1)c1nnc(C)n1-2 [Compound I-6]	< 500 nM	< 50 nM
Cc1sc2c(c1C)C(c1ccc(Cl)cc1)=N[C@@H](CC(=O)NCCOCCOCCOCCOCCOC1CCN(c3ncc(C(=O)N[C@H]4C(C)(C)[C@H](Oc5ccc(C#N)c(Cl)c5)C4(C)C)cn3)CC1)c1nnc(C)n1-2 [Compound I-8]	500 to 1500 nM	< 50 nM
Cc1sc2c(c1C)C(c1ccc(Cl)cc1)=N[C@H](CC(=O)NCCOCCOCCOCCOCCN(C)c1ncc(C(=O)N[C@H]3C(C)(C)[C@H](Oc4ccc(C#N)c(Cl)c4)C3(C)C)cn1)c1nnc(C)n1-2 [Compound I-19]	1500 to 3000 nM	< 50 nM
Cc1sc2c(c1C)C(c1ccc(Cl)cc1)=N[C@@H](CC(=O)NCCOCCOCCOCCOCCOCCOCCN(C)c1ncc(C(=O)N[C@H]3C(C)(C)[C@H](Oc4ccc(C#N)c(Cl)c4)C3(C)C)cn1)c1nnc(C)n1-2 [Compound I-4]	1500 to 3000 nM	< 50 nM
Cc1sc2c(c1C)C(c1ccc(Cl)cc1)=N[C@@H](CC(=O)NCCOCCOCCOCC1CCN(c3ncc(C(=O)N[C@H]4C(C)(C)[C@H](Oc5ccc(C#N)c(Cl)c5)C4(C)C)cn3)CC1)c1nnc(C)n1-2 [Compound I-17]	> 3000 nM	< 50 nM
